Data published in patent publication US20230044633A1, “OPTICAL BASED METHODS FOR DETERMINING ANTIMICROBIAL DOSING REGIMENS” (University of Houston System, priority 2019, published 2023).
≈ marks a conversion by molar mass, not a printed value.

Legend:
[1] = system: Acinetobacter baumannii (AB), ATCC BAA747; assay: Susceptibility (MIC); type: cell-based; conditions: ATCCBAA747, wild type AB ATCC BAA747, previously found
Method: Microorganism. A laboratory reference wild type Acinetobacter baumannii (AB), ATCC BAA747, was utilized in the study. The bacteria were stored at −70° C. in Protect® vials. Before the experiment, the bacteria were subcultured at least twice on 5% blood agar plates for 24 hours at 35° C. and fresh colonies were used.

[2] = system: A. baumannii 1261 (clinical isolate); assay: Clinical isolate exposed to antibiotic concentration combinations in 4×4 array, tracked over 24 h on 216Dx; type: cell-based, Acinetobacter baumannii; conditions: clinical isolate of A. baumannii (multidrug resistant)
Method: FIG. 3. A. baumannii 1261 was exposed to 16 different concentration combinations of levofloxacin (L) and amikacin (A). Each sequence of points represents the time course of the bacterial population (baseline inoculum approximately 2-5×10^5 CFU/ml) exposed to one levofloxacin/amikacin concentration combination (e.g., levofloxacin 20 mg/l+amikacin 30 mg/ is shown in hollow squares). Bacteria exposed to drugs with no activity produce profiles that superimpose on those from placebo controls; antimicrobial activity manifests as a delay or absence of growth.
Ineffective antibiotics may have acceptable activity when combined. A clinical isolate of A. baumannii was exposed to different antibiotic concentration combinations in a 4×4 array, and the bacterial burden was tracked over 24 h using the prototype technical platform 216Dx. While the isolate is resistant to levofloxacin, amikacin and cefepime (multidrug resistant), bacterial growth was delayed in selected combinations (FIG. 3) and the profiles were reasonably captured by the mathematical modeling framework (1) shown above (FIG. 1, right).

SMILES	MIC [1] [µg/mL]	susceptibility phenotype of the isolate [2]
C[C@H]1COc2c(N3CCN(C)CC3)c(F)cc3c(=O)c(C(=O)O)cn1c23 [LVX, Levofloxacin]	0.25 (≈ 0.692 µM)	–
NCC[C@H](O)C(=O)N[C@@H]1C[C@H](N)[C@@H](O[C@H]2O[C@H](CN)[C@@H](O)[C@H](O)[C@H]2O)[C@H](O)[C@H]1O[C@H]1O[C@H](CO)[C@@H](O)[C@H](N)[C@H]1O [amikacin]	–	resistant
CO/N=C(\C(=O)N[C@@H]1C(=O)N2C(C(=O)[O-])=C(C[N+]3(C)CCCC3)CS[C@H]12)c1csc(N)n1 [cefepime]	–	resistant
